In patent EP0142333A2, “Glycerol derivatives” (ONO PHARMACEUTICAL CO., LTD., priority 1983, dated 1985):
Where a name gives a salt, the structure may show the parent alone.

Columns and labels:
[1] = tested on: mice; assay: Acute toxicity by intravenous administration; assay type: in vivo; details: intravenously administered to tail vein in mice at the dose of 50 mg/kg
[2] = tested on: PAF-induced platelet aggregation; assay: Inhibitory effect on PAF-induced platelet aggregation (platelet rich plasma, Born aggregometer); assay type: cell-based; details: Cavia porcellus; platelet rich plasma of male guinea-pig; PAF (10nM)-induced aggregation; absorbancy method
Protocol: (1) Inhibitory effect on PAF-induced platelet aggregation
Whole blood of male guinea-pig was collected with a 3.8%. aqueous solution of trisodium citrate in a proportion of 9:1 (v/v) and the mixture was centrifuged for 10 minutes at room temperature (120 x g) to obtain platelet rich plasma. Using obtained plasma, PAF (10nM)-induced aggregation was determined by the absorbancy method using an aggregometer of Born (cf. J. Physiol., 162, 67 (1962)) .
The evaluation is conducted using the concentration of compounds of the present invention required to produce a 50% inhibition of each effect, i.e. IC50.

| Structure (SMILES) | mortality (dead/used) [1] | IC50 [2] [µM] |
| --- | --- | --- |
| CCCCCCCCCCCCCCCCOCC(COCCCCCCC[N+](C)(C)C)OCC (racemic) [5(a), (2RS)-1-0-hexadecyl-2-0-ethyl-3-0-[7-(trimethylammonio)heptyl]glycerol·methanesulfonic acid salt] | 0/5 | – |
| CCCCCCCCCCCCCCCCOCC(COCCCCCCC[N+](C)(C)C)OCCC (racemic) [5(b), (2RS)-1-0-hexadecyl-2-0-n-propyl-3-0-(7-(trimethylammonio)heptyl]glycerol·methanesulfonic acid salt] | 0/5 | 1.8 |
| CCCCCCCCCCCCCCCCOCC(COCCCC[N+](C)(C)C)C(C)C (racemic) [Example 2(b), (2RS)-l-0-hexadecyl-2-dehydroxy-2-iso-propyl-3-0-[4-(trimethylammonio)butyl]glycerol·iodide] | 2/5 | – |
| CCCCCCCCCCCCCCCCOCC(CCC)COCCCC[N+](C)(C)C (racemic) [Example 2, (2RS)-1-0-hexadecyl-2-dehydroxy-2-n-propyl-3-0-[4-(trimethylammonio)butyl]glycerol·iodide] | – | 5.3 |
| CCCCCCCCCCCCCCCCOCC(COCCCCCCC[N+](C)(C)C)OC (racemic) [Example 5, (2RS)-1-0-hexcadecyl-2-0-methyl-3-0-[7-(trimethylammonio)heptyl] glycerol·methanesulfonic acid salt] | 0/5 | 1.3 |
| C=CCOC(COCCCCCCCCCCCCCCCC)COCCCC[N+](C)(C)C (racemic) [Example 7, (2RS)-1-0-hexadecyl-2-0-allyl-3-0-[4-(trimethylammonio)butyl] glycerol·iodide] | – | 3.8 |
